Data published in patent publication US20080003632A1, “Method for the In Vitro Determination of Cellular Uptake of Exogenous and Endogenous Substances Using Nmr Shift Agents and the Magic Angle Nmr Technique” (Bracco Imaging SpA, priority 2004, published 2008).

Tested on: HRBC (Human Red Blood Cells)
Assay: Cellular uptake of acetylsalicylic acid in red blood cells by 1H HR-MAS NMR with shift agent Dy-BOPTA
Format: in vitro ADME
From the text: Determination of Cellular Uptake of Acetylsalicylic Acid in Red Blood Cells
In this example, EXO=Acetylsalicylic acid; SA=Dy-BOPTA (Dy is the symbol of Dysprosium, one of the lanthanides known as shift agent).
The nucleus used to determine Acetylsalicylic acid cellular uptake is the proton.
The in vitro determination has been preformed on HRBC obtained by human blood treated as described below.
Centrifugation: the employed centrifuge was HERAEUS SEPATECH OMNIFUGE 2 ORS, rotor model 3360. Centrifugation was done at 2109 g (equivalent to 3500 rpm) at 4° C. for 15 minutes.
Living HRBC preparation: human blood (to which sodium citrate has been added as an anticoagulant) was centrifuged. After that, HRBC pellets were separated from serum and white cell interface, carefully obtaining a solution of red cells free of white cells; accordingly, red cells with 80% hematocrit were obtained.
Dy-BOPTA stock solution: a 0.1 M stock solution of Dy-BOPTA was used in all of the measurement to obtain the suitable [SA].
Acetylsalicylic acid stock solution: a 1 M stock solution of ASA containing 0.1 M of DSS (as internal standard for quantitative determination), was used in all of the measurements.
The solution was prepared by dissolving 180.16 mg of ASA and 23.63 mg of DSS in 200 ul of H2O, adding NaOH 2N until dissolution, lowering, if necessary, the pH to 7 with HCl 1N, then filling the volume to 1 ml. In this way two forms of ASA are generated that are below indicated as A and B.
Acetylsalicylic acid in HRBC: a sample containing 1 ml of HRBC (80% hematocrit), 100 μmoles of acetylsalicylic acid (i.e. 100 μl of acetylsalicylic acid stock solution) and 8 μmoles of Dy-BOPTA (i.e. 80 μl of Dy-BOPTA stock solution) was employed to measure the uptake of acetylsalicylic acid in HRBC.
Proton ^1H NMR spectra: all the ^1H NMR spectra have been acquired on a Bruker AMX 600 SB spectrometer at the frequency of 600.13 MHz. A multinuclear HR-MAS probehead with double bearing and 4 mm rotor with 12 μl spherical insert have been employed. Experimental conditions were: sample rotating speed=3500 Hz; spectra width=12,000 Hz (c.a. 20 ppm); time domain data points=128 K; number of scans=16; pulse length=11.7 μs; recycle delay=10 s; CPMG sequence; Fourier Transform by 0.5 Hz of enhancement multiplication function, sample temperature=25° C.
Proton spectra have been employed to determine acetylsalicylic acid cellular uptake, because ^1H is the sole nucleus present in acetylsalicylic acid having a high NMR sensitivity. […] Both of the two signals are marker^EXO signals.
The measurement of cellular uptake of acetylsalicylic acid by HRBC was calculated from the spectra reported in the enclosed FIG. 7.
Firstly, the ^1H NMR-MAS spectrum of HRBC was acquired (FIG. 7—trace a) in the absence of either acetylsalicylic acid (EXO) or of Dy-BOPTA (SA).
Then, 100 μl of acetylsalicylic acid 1M stock solution were added and the spectrum repeated (FIG. 7—trace b). In spectrum of trace b the two components for each signal A and B of the methyl group of acetylsalicylic acid were well visible, i.e. four peaks exist in the proton MAS-NMR spectrum. The splitting of signals A and B induces to suppose that the molecules of acetylsalicylic acid in the extra- and intra-cellular compartments are in magnetically different environments, i.e. the four observed signals corresponded to signals A e B into intra- and extra-cellular compartments, respectively.
Lastly, 80 μl of Dy-BOPTA stock solution were also added to the sample and the spectrum were again re-acquired (FIG. 7—trace c). […] Two components resulted unshifted with respect to the original marker^EXO signals while the other two components were shifted.
Acetylsalicylic acid corresponding to the unshifted marker^EXO signals is ACETYLSALICYLIC ACIDCC≠SA, i.e. acetylsalicylic acid in the intra-cellular compartment. […]

% of cellular uptake of acetylsalicylic acid A (form A, HRBC): 3.04% | concentration of acetylsalicylic acid o (A) (form A, extracellular fluid volume 0.38 ml): 154.10 mM | μmoles acetylsalicylic acid o (A), amount in extra-cellular compartment (form A, extracellular, 1 ml HRBC 80% hematocrit, 100 μmoles ASA added, 8 μmoles Dy-BOPTA, 25° C.): 58.56 µmol | concentration of acetylsalicylic acid i (A) (form A, intracellular fluid volume 0.8 ml): 4.83 mM | μmoles acetylsalicylic acid i (A), amount in intra-cellular compartment (form A, intracellular, 1 ml HRBC 80% hematocrit, 100 μmoles ASA added, 8 μmoles Dy-BOPTA, 25° C.): 3.87 µmol | [acetylsalicylic acid]o/[acetylsalicylic acid]i (A) (form A, ratio of extra- to intra-cellular concentration): 31.90 | % of cellular uptake of acetylsalicylic acid B (form B, HRBC): 10.40% | concentration of acetylsalicylic acid o (B) (form B, extracellular fluid volume 0.38 ml): 79.44 mM | μmoles acetylsalicylic acid o (B), amount in extra-cellular compartment (form B, extracellular, 1 ml HRBC 80% hematocrit, 100 μmoles ASA added, 8 μmoles Dy-BOPTA, 25° C.): 30.19 µmol | concentration of acetylsalicylic acid i (B) (form B, intracellular fluid volume 0.8 ml): 9.22 mM | μmoles acetylsalicylic acid i (B), amount in intra-cellular compartment (form B, intracellular, 1 ml HRBC 80% hematocrit, 100 μmoles ASA added, 8 μmoles Dy-BOPTA, 25° C.): 7.38 µmol | [acetylsalicylic acid]o/[acetylsalicylic acid]i (B) (form B, ratio 79.44/9.22 of extra- to intra-cellular concentration): 8.61 | % of cellular uptake of total acetylsalicylic acid (forms A + B, HRBC): 5.67%
Compound: CC(=O)Oc1ccccc1C(=O)O [acetylsalicylic acid]
